*: point of attachment. NHNH2 = NN*
Assays:
[1] = system: HepG2 cells expressing EGFP; test: Cas9-RNP delivery against EGFP (gene editing, plate reader), HepG2; type: cell-based
Protocol: To generate an EGFP expressing HeLa cell line, HeLa cells were transfected with EGFP pDNA (pEGFP-C1, Clontech) and stable transfectants were selected with 400 μg/mL of G-418 (Millipore). Green clones were selected by epifluorescence microscopy and tested for EGFP expression stability through several passages. […] All other EGFP-expressing cell lines were obtained in a similar way from parent non-EGFP-expressing cell lines.
Cells expressing EGFP were seeded in a 96 well plate the day before the experiment at a concentration of 50,000 cell/mL (100 μL/w) in DMEM+10% FBS+1% Gln-Abt. For robotic library screening, the delivery of Cas9-RNP against EGFP (RNP designed to knock-out the gene encoding for the enhanced green fluorescent protein (EGFP)) was performed. For RNP assembly, 9.2 μL of crRNA and 9.2 μL of tracrRNA were mixed in 211.6 μL of Nuclease-Free Duplex Buffer (IDT), incubated for 5 min at 95° C. and slowly cooled at rt (see I. Lostalé-Seijo, et al. Peptide/Cas9 nanostructures for ribonucleoprotein cell membrane transport and gene edition, Chem. Sci., 2017). Cas9 protein was dissolved in DMEM at a final concentration of 4 μM and equal volumes of the RNA complex and Cas9 were mixed and incubated for 5 min at rt. 75 μL of the corresponding amphiphile concentrations were added to 5 μL of RNP at 2 μM. The mixture was shaken for 30 min at room temperature before the addition to the cells. The cell medium was aspirated, and cells were washed twice with PBS. Cells were covered with 30 μL of DMEM and 20 μL of the RNP/amphiphile complexes were added to the cells (final peptide concentrations=2.5, 5 and 10 μM; final Cas9-RNP concentration=50 nM) and incubated for 4 h. After the incubation, the medium was replaced by 100 μL of fresh DMEM supplemented with 10% FBS. The total EGFP fluorescence was quantified after 72 h in a plate reader (FIG. 2, Table 1 (right) and Table 6). All experiments were done in triplicate. […]
Tables 26-31 show the mean (triplicates) percentage of gene editing, accounted by GFP fluorescence intensity decrease (% of reduction), measured after the transfection of Cas9-RNP by different amphiphiles at different concentrations in a variety of cell lines. Background values, accounted by untreated control cells, were subtracted for processing.

[2] = system: Hela cells; test: RLuc pDNA delivery, robotic library screening, HeLa; type: cell-based
Protocol: Cells were seeded in a 96 well plate the day before the experiment at a concentration of 60,000 cell/mL (100 μL/w) in DMEM+10% FBS+1% Gln-Abt. For robotic library screening, the delivery of pDNA encoding for the expression of Renilla luciferase gene (RLuc, pRL-CMV (Promega, #E2261)) in six different cell lines was performed. […] The mixture was shaken for 30 min at room temperature before the addition to the cells. The cell medium was aspirated, and cells were washed twice with PBS. Finally, 50 μL of the complex's solution were added to the cells and incubated for 4 h. After the incubation, the medium was replaced by 100 μL of fresh DMEM supplemented with 10% FBS. 72 hours after transfection the DMEM was removed, cells were washed once with HBSS and 90 μL of HBSS were added to each well. Cells were incubated at 37° C. for 30 minutes. Then basal luminescence levels were read in a plate reader. Immediately, 10 μL of coelenterazine h in HBSS were added to each well (5 μM final concentration) and cells were incubated at 37° C. for 10 minutes. Finally, the total luminescence measurement of the plates was performed. Amphiphile transfection efficiency was compared and normalized to Lipofectamine® 2000 efficiency (value of 1 in Tables 1-5 and 7; bold numbers). All experiments were done in triplicate.
Tables 1-7: RLuc (pDNA) or EGFP (mRNA) expression levels were normalized to Lipofectamine reagents (value=1) and expressed as fold-times signal increase. In the case of siRNA, the siRNA treated cells fluorescence was compared with siMOCK control fluorescence, while Cas9-RNP mediated knockout was measured against the fluorescence of untreated cells. In both siRNA and Cas9-RNP, values are expressed as % fluorescence reduction. Amphiphile concentration was 5 μM in all cases. All experiments were performed in triplicate.
Tables 8-13 show the mean (triplicates) luminescent intensity (RLU) measured after the transfection of RLuc pDNA by different amphiphiles at different concentrations in a variety of cell lines. Background luminescence values, accounted by untransfected control cells, were subtracted for processing.

| Substance | percentage of gene editing, GFP fluorescence intensity decrease (% of reduction) ([1]; Dodecanal, 10 μM) [%] | percentage of gene editing, GFP fluorescence intensity decrease (% of reduction) ([1]; Dodecanal, 15 μM) [%] | percentage of gene editing, GFP fluorescence intensity decrease (% of reduction) ([1]; Myristoleyl, 10 μM) [%] | percentage of gene editing, GFP fluorescence intensity decrease (% of reduction) ([1]; Petroselinyl, 5 μM) [%] | percentage of gene editing, GFP fluorescence intensity decrease (% of reduction) ([1]; Petroselinyl, 10 μM) [%] | mean luminescent intensity (RLuc pDNA) ([2]; HeLa, Petroselinyl, 10 μM) [RLU] | mean luminescent intensity (RLuc pDNA) ([2]; Hela, Dodecanal, 10 μM) [RLU] | mean luminescent intensity (RLuc pDNA) ([2]; Hela, Dodecanal, 15 μM) [RLU] | mean luminescent intensity (RLuc pDNA) ([2]; Hela, Myristoleyl, 5 μM) [RLU] | mean luminescent intensity (RLuc pDNA) ([2]; Hela, Myristoleyl, 10 μM) [RLU] | mean luminescent intensity (RLuc pDNA) ([2]; Hela, Myristoleyl, 15 μM) [RLU] | mean luminescent intensity (RLuc pDNA) ([2]; Hela, Palmitoleyl, 10 μM) [RLU] | mean luminescent intensity (RLuc pDNA) ([2]; Hela, Petroselinyl, 5 μM) [RLU] | also measured |
| --- | --- | --- | --- | --- | --- | --- | --- | --- | --- | --- | --- | --- | --- | --- |
| Ac-RK*LRRK*LRK*-NH2 (Ac-RK(NHNH2)LRRK(NHNH2)LRK(NHNH2)-NH2; not fully specified; printed as Ac-RK*LRRK*LRK*-NH2; also: K*2,K*6,K*9: native or modified lysine (ε-amide to a linker)) [Peptide 9.3] | −29 | −26 | −5 | −24 | −19 | 1228 | 70716 | 303962 | 3600 | 18554 | 4014 | 940 | 1035 | percentage of gene editing, GFP fluorescence intensity decrease (% of reduction) ([1]; Oleyl, 5 μM): −10%; percentage of gene editing, GFP fluorescence intensity decrease (% of reduction) ([1]; Oleyl, 10 μM): 3%; mean luminescent intensity (RLuc pDNA) ([2]; Hela, Oleyl, 10 μM): 5404 RLU; mean luminescent intensity (RLuc pDNA) ([2]; Hela, Oleyl, 15 μM): 1759 RLU; mean luminescent intensity (RLuc pDNA) ([2]; Hela, Palmitoleyl, 15 μM): 22617 RLU; mean luminescent intensity (RLuc pDNA) ([2]; Hela, Petroselinyl, 15 μM): 14602 RLU |
| Ac-RK*LRRLLRK*-NH2 (Ac-RK(NHNH2)LRRLLRK(NHNH2)-NH2; not fully specified; printed as Ac-RK*LRRLLRK*-NH2; also: K*2,K*9: native or modified lysine (ε-amide to a linker)) [Peptide 9.2] | −35 | −35 | −17 | – | – | – | 13156 | 11603 | −600 | −701 | −707 | – | – | – |
| Ac-RRHK*RLK*RRLK*RL-NH2 (Ac-RRHK(NHNH2)RLK(NHNH2)RRLK(NHNH2)RL-NH2; not fully specified; printed as Ac-RRHK*RLK*RRLK*RL-NH2; also: K*4,K*7,K*11: native or modified lysine (ε-amide to a linker)) [13(Leu-His)] | −37 | – | 11 | −7 | 9 | 2037 | – | – | 7216 | 985 | −373 | 3026 | 5527 | percentage of gene editing, GFP fluorescence intensity decrease (% of reduction) ([1]; Oleyl, 15 μM): −22%; percentage of gene editing, GFP fluorescence intensity decrease (% of reduction) ([1]; Palmitoleyl, 5 μM): −36%; percentage of gene editing, GFP fluorescence intensity decrease (% of reduction) ([1]; Palmitoleyl, 10 μM): 8%; percentage of gene editing, GFP fluorescence intensity decrease (% of reduction) ([1]; Palmitoleyl, 15 μM): 13%; percentage of gene editing, GFP fluorescence intensity decrease (% of reduction) ([1]; Petroselinyl, 15 μM): 14%; mean luminescent intensity (RLuc pDNA) ([2]; Hela, Palmitoleyl, 5 μM): 7854 RLU |

From patent publication US20250304623A1, “PEPTIDES FOR INTRACELLULAR DELIVERY” (UNIVERSIDADE DE SANTIAGO DE COMPOSTELA, priority 2022, published 2025)
